Experimental data as given in the NIST ThermoML archive (doi:10.1021/je700260f).

Details: Liquid, Vibrating tube method

FC(C(F)(F)F)C(F)(F)F [1,1,1,2,3,3,3-heptafluoropropane]
Details | mass density [kg/m3]
333.16 K, 21595 kPa | 1400.1
333.16 K, 21615 kPa | 1400.2
333.16 K, 21797 kPa | 1401.1
333.16 K, 21860 kPa | 1401.5
333.16 K, 21957 kPa | 1401.9
333.16 K, 21990 kPa | 1402
333.16 K, 22016 kPa | 1402.3
333.16 K, 22042 kPa | 1402.3
333.16 K, 22082 kPa | 1402.5
333.16 K, 22116 kPa | 1402.8
333.16 K, 22154 kPa | 1402.9
333.16 K, 22183 kPa | 1403.1
333.16 K, 22220 kPa | 1403.2
333.16 K, 22249 kPa | 1403.6
333.16 K, 22279 kPa | 1403.5
333.16 K, 22309 kPa | 1403.8
333.16 K, 22335 kPa | 1403.8
333.16 K, 22370 kPa | 1404.1
333.16 K, 22404 kPa | 1404.2
333.16 K, 22435 kPa | 1404.3
333.16 K, 22473 kPa | 1404.6
333.16 K, 22511 kPa | 1404.8
333.16 K, 22537 kPa | 1404.9
333.16 K, 22575 kPa | 1405.2
333.16 K, 22605 kPa | 1405.3
333.16 K, 22642 kPa | 1405.4
333.16 K, 22672 kPa | 1405.6
333.16 K, 22698 kPa | 1405.8
333.16 K, 22736 kPa | 1405.9
333.16 K, 22762 kPa | 1406.1
333.16 K, 22980 kPa | 1407.1
333.16 K, 23011 kPa | 1407.2
333.16 K, 23037 kPa | 1407.4
333.16 K, 23068 kPa | 1407.5
333.16 K, 23104 kPa | 1407.9
333.16 K, 23133 kPa | 1407.8
333.16 K, 23162 kPa | 1408
333.16 K, 23193 kPa | 1408.1
333.16 K, 23228 kPa | 1408.3
333.16 K, 23254 kPa | 1408.5
333.16 K, 23297 kPa | 1408.8
333.16 K, 23324 kPa | 1408.8
333.16 K, 23358 kPa | 1409
333.16 K, 23425 kPa | 1409.3
333.16 K, 23453 kPa | 1409.5
333.16 K, 23480 kPa | 1409.5
333.16 K, 23515 kPa | 1409.6
333.16 K, 23559 kPa | 1410
333.16 K, 23594 kPa | 1410.2
333.16 K, 23633 kPa | 1410.3
333.16 K, 23662 kPa | 1410.4
333.16 K, 23693 kPa | 1410.4
333.16 K, 23728 kPa | 1410.8
333.16 K, 23763 kPa | 1411
333.16 K, 23795 kPa | 1411
333.16 K, 23823 kPa | 1411.3
333.16 K, 23890 kPa | 1411.6
333.16 K, 23921 kPa | 1411.7
333.16 K, 23957 kPa | 1411.9
333.16 K, 23993 kPa | 1412
333.16 K, 24020 kPa | 1412.2
333.16 K, 24055 kPa | 1412.4
333.16 K, 24089 kPa | 1412.4
333.16 K, 24110 kPa | 1412.7
333.16 K, 24140 kPa | 1412.7
333.16 K, 24184 kPa | 1413
333.16 K, 24206 kPa | 1413.1
333.16 K, 24242 kPa | 1413.2
333.16 K, 24269 kPa | 1413.3
333.16 K, 24304 kPa | 1413.6
333.16 K, 24333 kPa | 1413.8
333.16 K, 24369 kPa | 1413.7
333.16 K, 24396 kPa | 1414
333.16 K, 24436 kPa | 1414.2
333.16 K, 24468 kPa | 1414.3
333.16 K, 24500 kPa | 1414.4
333.16 K, 24531 kPa | 1414.6
333.16 K, 24558 kPa | 1414.7
333.16 K, 24594 kPa | 1414.9
333.16 K, 24621 kPa | 1415.1
333.16 K, 24657 kPa | 1415.2
333.16 K, 24688 kPa | 1415.3
333.16 K, 24720 kPa | 1415.5
333.16 K, 24751 kPa | 1415.7
333.16 K, 24782 kPa | 1415.8
333.16 K, 24810 kPa | 1415.9
333.16 K, 24838 kPa | 1416
333.16 K, 24869 kPa | 1416
333.16 K, 24910 kPa | 1416.4
333.16 K, 24944 kPa | 1416.5
333.16 K, 24980 kPa | 1416.7
333.16 K, 25007 kPa | 1416.8
333.16 K, 25039 kPa | 1417.1
333.16 K, 25088 kPa | 1417.1
333.16 K, 25111 kPa | 1417.2
333.17 K, 17403 kPa | 1376.8
333.17 K, 17429 kPa | 1376.9
333.17 K, 17457 kPa | 1377.4
333.17 K, 18467 kPa | 1383.1
333.17 K, 18490 kPa | 1383
333.17 K, 18517 kPa | 1383.4
333.17 K, 18552 kPa | 1383.6
333.17 K, 23382 kPa | 1409
